In paper PMC8861050, “Design, synthesis and evaluation of novel 2-oxoindoline-based acetohydrazides as antitumor agents” (Scientific Reports, 2022):

Columns and labels:
PC3 (prostate cancer) = test: SRB cytotoxicity assay, PC3; format: cell-based; settings: Homo sapiens, 48 h incubation, mean ± SEM of 3 independent experiments
Text: (§1) Three human cancer cell lines: colon cancer (SW620), prostate cancer (PC3), and lung cancer (NCI-H23) were used for sceening the cytotoxicity of the compounds. The cancer cells were purchased from American Type Culture Collection (Manassas, VA, USA). Other reagents/media for cell culture were obtained from GIBCO (Grand Island, New York, USA). The testing cancer cells were culture in Dulbecco’s Modified Eagle Medium until confluence. Then, they were trypsinized and suspended at the level of 3 × 10^4 cells/mL of cell culture medium. On day 0, cancer cells were seeded at a volume of 180 µL/well of 96-well plates and incubated for 24 h at 37 °C in a 5% CO2 incubator. On day 1, 20 µL of various concentrations of testing compounds were added to each well of the 96-well plates. Chemicals were dissolved in dimethyl sulfoxide (DMSO, stock) and diluted in culture medium (1% DMSO) before adding to the culture. After 48 h incubation, the sulforhodamine B assay was used for cell density determination with slight modifications[22]–[26]. The Probits were used for the calculation of IC50 values. The reported IC50 were the averages of three independent screening (SD ≤ 10%)[27].
(§2) Two series of compounds synthesized (4a–p and 5a–f) were evaluated for their cytotoxicity against three human cancer cell lines, including SW620 (colon cancer), PC3 (prostate cancer), NCI-H23 (lung cancer), using SRB method as described previously[22] with slight modifications[23]–[26].

[1] = Cytotoxicity on normal mesenchymal stem cells; format: cell-based; settings: human bone marrow-derived mesenchymal stem cells; mean ± SEM; read-out: Cytotoxicity (IC50) MSCs
Description: Overally, 5-fluorinated compounds (4i–p and 5d–f) were slightly more cytotoxic than non-fluorinated ones (4a–h, 5a–c). For compounds in series 4a–p, it was observed that, electron-releasing substituents (–OCH3, OH) were generally better than electron-withdrawing groups (–Cl) for cytotoxicity. Especially, compounds with 2-OH substituents produced the best cytotoxicity. The addition of either 4-OCH3 or 3-allyl groups further enhanced cytotoxicity of the related compounds (4g, 4h and 4o, 4p).

SW620 (colon cancer) = test: SRB cytotoxicity assay, SW620; format: cell-based; settings: Homo sapiens, SW-620, 48 h incubation, mean ± SEM of 3 independent experiments
Text: as §1, §2

NCI-H23 (lung cancer) = test: SRB cytotoxicity assay, NCI-H23; format: cell-based; settings: Homo sapiens, 48 h incubation, mean ± SEM of 3 independent experiments
Text: as §1, §2

Structure (SMILES)	melting point [°C]	IC50 (PC3 (prostate cancer)) [µM]	IC50 [1] [µM]	IC50 (SW620 (colon cancer)) [µM]	IC50 (NCI-H23 (lung cancer)) [µM]
O=C(CN1C(=O)Cc2ccccc21)N/N=C/c1ccccc1Cl [Compound 4b, (E)-N'-(2-Chlorobenzylidene)-2-(2-oxoindolin-1-yl)acetohydrazide]	179 to 181	8.72 ± 0.71	> 30	9.91 ± 0.76	8.34 ± 0.52
O=C(CN1C(=O)Cc2cc(F)ccc21)N/N=C/c1ccccc1 [Compound 4i, (E)-N'-Benzylidene-2-(5-fluoro-2-oxoindolin-1-yl)acetohydrazide]	173 to 174	8.56 ± 0.52	> 30	9.54 ± 0.74	8.44 ± 0.67
O=C(CN1C(=O)Cc2cc(F)ccc21)N/N=C/c1ccccc1Cl [Compound 4j, (E)-N'-(2-Chlorobenzylidene)-2-(5-fluoro-2-oxoindolin-1-yl)acetohydrazide]	185 to 186	8.43 ± 0.59	> 30	7.56 ± 0.57	8 ± 0.98
O=C(CN1C(=O)Cc2cc(F)ccc21)N/N=C/c1cccc(Cl)c1 [Compound 4k, (E)-N'-(3-Chlorobenzylidene)-2-(5-fluoro-2-oxoindolin-1-yl)acetohydrazide]	187 to 188	16.4 ± 1.56	> 30	16.4 ± 1.19	17.4 ± 1.54
O=C(CN1C(=O)Cc2cc(F)ccc21)N/N=C/c1ccc(Cl)cc1 [Compound 4l, (E)-N'-(4-Chlorobenzylidene)-2-(5-fluoro-2-oxoindolin-1-yl)acetohydrazide]	191 to 192	17.8 ± 1.58	> 30	14.3 ± 1.21	16.4 ± 1.77
O=C(CN1C(=O)Cc2ccccc21)N/N=C1\C(=O)Nc2ccccc21 [Compound 5a, (Z)-2-(2-Oxoindolin-1-yl)-N'-(2-oxoindolin-3-ylidene)acetohydrazide]	191 to 192	14.3 ± 1.21	> 30	16.4 ± 1.05	15.3 ± 1.32

Now from value to molecule, other results behind:

melting point [°C]	Structure (SMILES)	IC50 (PC3 (prostate cancer)) [µM]	IC50 [1] [µM]	IC50 (SW620 (colon cancer)) [µM]	IC50 (NCI-H23 (lung cancer)) [µM]
167 to 168	O=C(CN1C(=O)Cc2ccccc21)N/N=C/c1ccccc1 [Compound 4a, (E)-N'-Benzylidene-2-(2-oxoindolin-1-yl)acetohydrazide]	12.2 ± 0.99	> 30	10.1 ± 0.91	10.4 ± 0.87
181 to 182	O=C(CN1C(=O)Cc2ccccc21)N/N=C/c1cccc(Cl)c1 [Compound 4c, (E)-N'-(3-Chlorobenzylidene)-2-(2-oxoindolin-1-yl)acetohydrazide]	14.2 ± 1	> 30	15.3 ± 1.01	13.5 ± 1.11
185 to 187	O=C(CN1C(=O)Cc2ccccc21)N/N=C/c1ccc(Cl)cc1 [Compound 4d, (E)-N'-(4-Chlorobenzylidene)-2-(2-oxoindolin-1-yl)acetohydrazide]	17.4 ± 1.34	> 30	16.3 ± 1.21	15.6 ± 1.43
168 to 169	COc1ccc(/C=N/NC(=O)CN2C(=O)Cc3ccccc32)cc1 [Compound 4e, (E)-N'-(4-Methoxybenzylidene)-2-(2-oxoindolin-1-yl)acetohydrazide]	7.43 ± 0.45	> 30	9.01 ± 0.74	8.72 ± 0.33
177 to 178	COc1ccc(/C=N/NC(=O)CN2C(=O)Cc3ccccc32)c(O)c1 [Compound 4g, (E)-N'-(2-Hydroxy-4-methoxybenzylidene)-2-(2-oxoindolin-1-yl)acetohydrazide]	4.32 ± 0.34	15.5 ± 0.64	3.34 ± 0.31	2.59 ± 0.21
175 to 176	COc1ccc(/C=N/NC(=O)CN2C(=O)Cc3cc(F)ccc32)cc1 [Compound 4m, (E)-N'-(4-Methoxybenzylidene)-2-(5-fluoro-2-oxoindolin-1-yl)acetohydrazide]	7.33 ± 0.42	> 30	7.52 ± 0.63	7.43 ± 0.56
